Test results as given in patent US7211572B2 (Japan Tobacco Inc., priority 2003, dated 2007).
Structures can show the parent of a compound that is named as a salt.

Biological target: T1, HIV integrase (Human immunodeficiency virus type 1 group M subtype B, UniProt P12497, F1332H)
T1 construct: HIV integrase full length gene; made in house; host or cells: Escherichia coli BL21(DE3), plasmid pET21a-INH
Assay: Determination of enzyme (HIV integrase) inhibitory activity
Format: biochemical
Details: recombinant HIV integrase (F185H), strand transfer ELISA, absorbance at 450 nm
Text: The following explains evaluation methods of the HIV integrase inhibitory activity of the compound of the present invention.
(i) Construction of Recombinant Integrase Gene Expression System
The 185th phenylalanine of HIV integrase full length gene (J. Virol., 67, 425–437 (1993)) was substituted by histidine and inserted into the restriction enzyme NdeI and XhoI sites of plasmid pET21a(+) (Novagen), whereby an integrase expression vector pET21a-INH was constructed.
(ii) Production and Purification of Integrase Protein
Escherichia coli recombinant BL21(DE3) transformed with plasmid pET21a-INH obtained in (i) was shake cultured at 37° C. in a liquid medium containing ampicillin. When the culture reached the logarithmic growth phase, isopropyl-β-D-thiogalactopyranoside was added to promote expression of integrase gene. The culture was continued for 3 hr to promote accumulation of the integrase protein. The recombinant E. coli was collected in pellets by centrifugal separation and preserved at −80° C.
The E. coli was suspended in Lysis buffer (20 mM HEPES (pH 7.5), 5 mM DTT, 10 mM CHAPS, 10% glycerol) containing 1M sodium chloride and subjected to repeat pressurization and depressurization for rupture, and centrifugal separation at 4° C., 40,000×g, 60 min to recover a water-soluble fraction (supernatant). This was diluted 10-fold with Lysis buffer free of sodium chloride, mixed with SP-Sepharose (Pharmacia Corporation) and stirred at 4° C. for 30 min to allow adsorption of integrase protein to the resin. The resin was washed with Lysis buffer containing 100 mM sodium chloride and the integrase protein was eluted with Lysis buffer containing 1M sodium chloride.
The eluted integrase protein solution was applied to a Superdex 75 (Pharmacia Corporation) column for gel filtration. The protein was eluted with Lysis buffer containing 1M sodium chloride.
The obtained fractions of the integrase protein were collected and preserved at −80° C.
(iii) Preparation of DNA Solution
The following DNA synthesized by Greiner was dissolved in TE buffer (10 mM Tris-hydrochloric acid (pH 8.0), 1 mM EDTA) and mixed with donor DNA, target DNA, and each complementary strand (+ and − strands) to 1 μM. The mixture was heated at 95° C. for 5 min, 80° C. for 10 min, 70° C. for 10 min, 60° C. for 10 min, 50° C. for 10 min and 40° C. for 10 min and preserved at 25° C. to give a double stranded DNA, which was used for the test.
Donor DNA (− strand having biotin attached to the 5′ terminal)
(iv) Determination of Enzyme (HIV Integrase) Inhibitory Activity
The donor DNA was diluted with TE buffer to 10 nM, of which 50 μl was added to each well of streptavidin-coated microtiter plate (Roche) and allowed to adsorb at 37° C. for 60 min. The DNA was washed with phosphate buffer (Dulbecco PBS, Sanko Junyaku Co., Ltd.) containing 0.1% Tween 20 and phosphate buffer. Then, a reaction mixture (70 μl) having the following composition, a test substance (10 μl) diluted with the reaction mixture and 100 μg/ml integrase protein (10 μl) were added to each well and reacted at 37° C. for 60 min.
Composition of the reaction mixture: 30 mM MOPS (3-morpholinopropanesulfonic acid), 5 mM magnesium chloride, 3 mM DTT (dithiothreitol), 0.1 mg/ml BSA (bovine serum albumin), 5% glycerol, 10% DMSO (dimethyl sulfoxide), 0.01% Tween 20.
Then, 50 nM target DNA (10 μl) was added, reacted at 37° C. for 10 min and washed with phosphate buffer containing 0.1% Tween 20 to stop the reaction.
Then, 100 mU/ml peroxidase labeled anti-digoxigenin antibody solution (Roche, 100 μl) was added, and the mixture was reacted at 30° C. for 60 min, followed by washing with phosphate buffer containing 0.1% Tween 20.
A peroxidase color solution (Bio Rad, 100 μl) was added and allowed to react at room temperature for 4 min. The color reaction was stopped by adding 1N sulfuric acid (100 μl). The absorbance at 450 nm was measured. […]

SMILES | IC50
O=C1c2c(O)c(=O)ccn2CCN1Cc1ccc(Cl)c(Cl)c1 [Example 1, 2-(3,4-dichlorobenzyl)-9-hydroxy-3,4-dihydro-2H-pyrido[1,2-a]pyrazine-1,8-dione hydrochloride] | < 10 nM
CC1Cn2ccc(=O)c(O)c2C(=O)N1Cc1ccc(Cl)c(Cl)c1 (centres unmarked) [Example 3, 2-(3,4-dichlorobenzyl)-9-hydroxy-3-methyl-3,4-dihydro-2H-pyrido[1,2-a]pyrazine-1,8-dione] | 10 to 100 nM
CC1(C)CN(Cc2ccc(Cl)c(Cl)c2)C(=O)c2c(O)c(=O)ccn21 [Example 4, 2-(3,4-dichlorobenzyl)-9-hydroxy-4,4-dimethyl-3,4-dihydro-2H-pyrido[1,2-a]pyrazine-1,8-dione] | 10 to 100 nM
O=C1c2c(O)c(=O)cc(CO)n2CCN1Cc1ccc(Cl)c(Cl)c1 [Example 5, 2-(3,4-dichlorobenzyl)-9-hydroxy-6-hydroxymethyl-3,4-dihydro-2H-pyrido[1,2-a]pyrazine-1,8-dione] | 10 to 100 nM
O=C(O)c1cc(=O)c(O)c2n1CCN(Cc1ccc(Cl)c(Cl)c1)C2=O [Example 6, 2-(3,4-dichlorobenzyl)-9-hydroxy-1,8-dioxo-1,3,4,8-tetrahydro-2H-pyrido[1,2-a]pyrazine-6-carboxylic acid] | 10 to 100 nM
CC(C)(C)C(=O)c1cc(=O)c(O)c2n1CCN(Cc1ccc(Cl)c(Cl)c1)C2=O [Example 7, 2-(3,4-dichlorobenzyl)-6-(2,2-dimethylpropionyl)-9-hydroxy-3,4-dihydro-2H-pyrido[1,2-a]pyrazine-1,8-dione] | < 10 nM
O=c1ccn2ccn(Cc3ccc(Cl)c(Cl)c3)c(=O)c2c1O [Example 8, 2-(3,4-dichlorobenzyl)-9-hydroxy-2H-pyrido[1,2-a]pyrazine-1,8-dione] | < 10 nM
Cc1cn2ccc(=O)c(O)c2c(=O)n1Cc1ccc(Cl)c(Cl)c1 [Example 9, 2-(3,4-dichlorobenzyl)-9-hydroxy-3-methyl-2H-pyrido[1,2-a]pyrazine-1,8-dione] | 10 to 100 nM
CC(C)c1cn(Cc2cccc(Cl)c2)c(=O)c2c(O)c(=O)ccn12 [Example 10, 2-(3-chlorobenzyl)-9-hydroxy-4-isopropyl-2H-pyrido[1,2-a]pyrazine-1,8-dione hydrochloride] | 10 to 100 nM
O=c1ccn2ccn(CCCc3c(Cl)cccc3Cl)c(=O)c2c1O [Example 11, 2-[3-(2,6-dichlorophenyl)propyl]-9-hydroxy-2H-pyrido[1,2-a]pyrazine-1,8-dione] | < 10 nM
O=c1ncn2ccn(Cc3ccc(Cl)c(Cl)c3)c(=O)c2c1O [Example 12, 2-(3,4-dichlorobenzyl)-9-hydroxy-2H-pyrazino[1,2-a]pyrimidine-1,8-dione hydrochloride] | 10 to 100 nM
CC1CN(Cc2ccc(Cl)c(Cl)c2)C(=O)c2c(O)c(=O)ccn21 (centres unmarked) [Example 13, 2-(3,4-dichlorobenzyl)-9-hydroxy-4-methyl-3,4-dihydro-2H-pyrido[1,2-a]pyrazine-1,8-dione] | 10 to 100 nM
O=C1c2c(O)c(=O)ccn2C(Cc2ccccc2)CN1Cc1ccc(Cl)c(Cl)c1 (centres unmarked) [Example 14, 4-benzyl-2-(3,4-dichlorobenzyl)-9-hydroxy-3,4-dihydro-2H-pyrido[1,2-a]pyrazine-1,8-dione] | 10 to 100 nM
O=C1c2c(O)c(=O)ccn2C(c2ccccc2)CN1Cc1ccc(Cl)c(Cl)c1 (centres unmarked) [Example 15, 2-(3,4-dichlorobenzyl)-9-hydroxy-4-phenyl-3,4-dihydro-2H-pyrido[1,2-a]pyrazine-1,8-dione] | 10 to 100 nM
CCCCC1CN(Cc2ccc(Cl)c(Cl)c2)C(=O)c2c(O)c(=O)ccn21 (centres unmarked) [Example 16, 4-butyl-2-(3,4-dichlorobenzyl)-9-hydroxy-3,4-dihydro-2H-pyrido[1,2-a]pyrazine-1,8-dione] | 10 to 100 nM
CC(C)C1CN(Cc2ccc(Cl)c(Cl)c2)C(=O)c2c(O)c(=O)ccn21 (centres unmarked) [Example 17, 2-(3,4-dichlorobenzyl)-9-hydroxy-4-isopropyl-3,4-dihydro-2H-pyrido[1,2-a]pyrazine-1,8-dione] | 10 to 100 nM
CC1(C)Cn2ccc(=O)c(O)c2C(=O)N1Cc1ccc(Cl)c(Cl)c1 [Example 18, 2-(3,4-dichlorobenzyl)-9-hydroxy-3,3-dimethyl-3,4-dihydro-2H-pyrido[1,2-a]pyrazine-1,8-dione] | 10 to 100 nM
O=C1c2c(O)c(=O)ccn2C2(CCCC2)CN1Cc1ccc(Cl)c(Cl)c1 [Example 19, 2-(3,4-dichlorobenzyl)-9-hydroxy-3,4-dihydro-2H-pyrido[1,2-a]pyrazine-4-spiro-1′-cyclopentane-1,8-dione] | 10 to 100 nM
O=C1c2c(O)c(=O)ccn2C2(CCCCC2)CN1Cc1ccc(Cl)c(Cl)c1 [Example 20, 2-(3,4-dichlorobenzyl)-9-hydroxy-3,4-dihydro-2H-pyrido[1,2-a]pyrazine-4-spiro-1′-cyclohexane-1,8-dione] | 10 to 100 nM
COC(=O)C1CN(Cc2ccc(Cl)c(Cl)c2)C(=O)c2c(O)c(=O)ccn21 (centres unmarked) [Example 21, methyl 2-(3,4-dichlorobenzyl)-9-hydroxy-1,8-dioxo-1,3,4,8-tetrahydro-2H-pyrido[1,2-a]pyrazine-4-carboxylate] | 10 to 100 nM
O=C(O)C1CN(Cc2ccc(Cl)c(Cl)c2)C(=O)c2c(O)c(=O)ccn21 (centres unmarked) [Example 22, 2-(3,4-dichlorobenzyl)-9-hydroxy-1,8-dioxo-1,3,4,8-tetrahydro-2H-pyrido[1,2-a]pyrazine-4-carboxylic acid] | 10 to 100 nM
COCc1cc(=O)c(O)c2n1CCN(Cc1ccc(Cl)c(Cl)c1)C2=O [Example 23, 2-(3,4-dichlorobenzyl)-9-hydroxy-6-methoxymethyl-3,4-dihydro-2H-pyrido[1,2-a]pyrazine-1,8-dione] | 10 to 100 nM
CN(C)C(=O)c1cc(=O)c(O)c2n1CCN(Cc1ccc(Cl)c(Cl)c1)C2=O [Example 24, N,N-dimethyl-2-(3,4-dichlorobenzyl)-9-hydroxy-1,8-dioxo-1,3,4,8-tetrahydro-2H-pyrido[1,2-a]pyrazine-6-carboxamide] | 10 to 100 nM
O=C1c2c(O)c(=O)ccn2CC(Cc2ccccc2)N1Cc1ccc(Cl)c(Cl)c1 (centres unmarked) [Example 25, 3-benzyl-2-(3,4-dichlorobenzyl)-9-hydroxy-3,4-dihydro-2H-pyrido[1,2-a]pyrazine-1,8-dione] | 10 to 100 nM
CCCCC1Cn2ccc(=O)c(O)c2C(=O)N1Cc1ccc(Cl)c(Cl)c1 (centres unmarked) [Example 26, 3-butyl-2-(3,4-dichlorobenzyl)-9-hydroxy-3,4-dihydro-2H-pyrido[1,2-a]pyrazine-1,8-dione] | 10 to 100 nM
CN(C)C(=O)C1CN(Cc2ccc(Cl)c(Cl)c2)C(=O)c2c(O)c(=O)ccn21 (centres unmarked) [Example 27, N,N-dimethyl-2-(3,4-dichlorobenzyl)-9-hydroxy-1,8-dioxo-1,3,4,8-tetrahydro-2H-pyrido[1,2-a]pyrazine-4-carboxamide] | 100 to 1000 nM
O=C1c2c(O)c(=O)ccn2C(CO)CN1Cc1ccc(Cl)c(Cl)c1 (centres unmarked) [Example 28, 2-(3,4-dichlorobenzyl)-9-hydroxy-4-hydroxymethyl-3,4-dihydro-2H-pyrido[1,2-a]pyrazine-1,8-dione] | 10 to 100 nM
COCC1CN(Cc2ccc(Cl)c(Cl)c2)C(=O)c2c(O)c(=O)ccn21 (centres unmarked) [Example 29, 2-(3,4-dichlorobenzyl)-9-hydroxy-4-methoxymethyl-3,4-dihydro-2H-pyrido[1,2-a]pyrazine-1,8-dione] | 10 to 100 nM
CSCc1cc(=O)c(O)c2n1CCN(Cc1ccc(Cl)c(Cl)c1)C2=O [Example 30, 2-(3,4-dichlorobenzyl)-9-hydroxy-6-methylsulfanylmethyl-3,4-dihydro-2H-pyrido[1,2-a]pyrazine-1,8-dione] | 10 to 100 nM
